Results taken from patent publication US9428536B2, “Immunostimulatory G, U-containing oligoribonucleotides” (Zoetis Belgium SA, priority 2002, dated 2016).
pEC50: −log10 of the molar value. Oligonucleotides are written 5' to 3', each unit as a sugar letter and its base; * is a phosphorothioate linkage, no mark a phosphodiester; rarer units and linkages stand in square brackets, end groups in braces. Plain capitals give the bases only. d = 2'-deoxy (DNA); r = 2'-OH (RNA)

Key:
[1] = test system: human PBMC; test: Human PBMC IL-6 secretion, ELISA; format: cell-based; conditions: Table 4, DNA:RNA conjugates; human PBMC overnight; including DOTAP
Experimental: (§1) Human PBMC were cultured overnight in the presence of added DNA:RNA conjugate, with and without DOTAP. Culture supernatants were harvested and human TNF-α, IL-6, IL-12 p40, IP-10, and IFN-α were measured by ELISA using matched antibody pairs from BD-Pharmingen according to the manufacturer's protocol.

[2] = test system: human PBMC; test: Human PBMC IP-10 secretion, ELISA; format: cell-based; conditions: Table 4, DNA:RNA conjugates; human PBMC overnight; including DOTAP
Experimental: as §1

[3] = test system: human PBMC; test: Human PBMC TNF-α secretion, ELISA; format: cell-based; conditions: for TNF-α max / pEC50: Table 4, DNA:RNA conjugates, human PBMC overnight, including DOTAP; for pEC50: read-out: TNF-α EC50
Experimental: Human peripheral blood mononuclear cells (PBMCs) were isolated from healthy donors, plated at 3×10^5 cells/well, stimulated in vitro with various test and control immunostimulatory agents for 16 hours, and then analyzed by enzyme-linked immunosorbent assay (ELISA) using matched antibody pairs from BD-Pharmingen for secreted cytokines IL-12 p40 and TNF-α, performed according to the manufacturer's protocol. Also included were certain negative controls, including medium alone and DOTAP (10 μg/200 μl culture well; “Liposomes”) alone. The control immunostimulatory agents included the imidazoquinolone R-848 (2 μg/ml), lipopolysaccharide (LPS; 1 μg/ml), Pam3Cys (5 μg/ml), poly IC (50 μg/ml), and CpG DNA (50 μg/ml). These are reported ligands for TLR7, TLR4, TLR2, TLR3, and TLR9, respectively. Test immunostimulatory agents included the following RNA molecules, each at 50 μg/ml, with and without DOTAP (10 μg total “with Liposomes” and “without Liposomes”, respectively): GUGUUUAC alone; GUAGGCAC alone; GUGUUUAC in combination with GUAGGCAC; GUAGGA; GAAGGCAC; CUAGGCAC; CUCGGCAC; and CCCCCCCC. These RNA oligonucleotides each contained a phosphorothioate linkage between the penultimate and 3′ terminal nucleoside.
The experiments described in the preceding example were repeated with varied concentrations of RNA oligonucleotides in order to assess the dose-response behavior of human PBMCs to G,U-containing RNA oligonucleotides of the invention. A total of 10, 3 or 1 μg RNA was added to 10 μg DOTAP and then added to the 200 μl culture wells. After 16 hours IL-12 p40 and TNF-α ELISAs were performed as described in Example 1.
In order to investigate the possibility of using cholesteryl ester-modified RNA oligomer in place of RNA oligomer plus cationic lipid, RNA oligomer GUGUGUGU was prepared with (R 1058) and without (R 1006) a 3′ cholesteryl ester modification. These two RNA oligomers with and without DOTAP, were added over a range of concentrations to overnight cultures of human PBMC. Culture supernatants were harvested, and human TNF-α, IL-12 p40, and IFN-α were measured by ELISA using matched antibody pairs from BD-Pharmingen according to the manufacturer's protocol.
(§2) RNA oligomers GUGUGUGU, GUGUGUG, GUGUGU, GUGUG, GUGU, GUG, and GU, with and without DOTAP, were added over a range of concentrations to overnight cultures of human PBMC. Culture supernatants were harvested, and human TNF-α, IL-12 p40, and IFN-α were measured by ELISA using matched antibody pairs from BD-Pharmingen according to the manufacturer's protocol.
as §2, with “oligomers,” for “oligomers GUGUGUGU, GUGUGUG, GUGUGU, GUGUG, GUGU, GUG, and GU,”
as §1
Human PBMC were cultured overnight in the presence of various concentrations (1, 3, and 10 μg/ml) of tRNA obtained from wheat germ, bovine, yeast, and E. coli sources, added to the culture medium with and without DOTAP. Culture supernatants were harvested and human TNF-α and IL-12 p40 were measured by ELISA using matched antibody pairs from BD-Pharmingen according to the manufacturer's protocol. […] In addition, E. coli tRNA at 3 and 10 μg/ml induced minor amounts of both cytokines even without DOTAP. […]
FIG. 10 depicts the responsiveness of human PBMC to stringent response factor (SRF). SRF is produced by rapidly growing bacteria (in this case Listeria monocytogenes) in rich media until their late log phase. The bacteria were pelleted and resuspended in an equal volume of PBS for 24 h. The mixture is centrifuged to remove the bacteria. […]

[4] = test system: wild type murine macrophages; test: Wild type murine macrophages in the presence of IFN-γ, IL-12 p40 ELISA; format: cell-based, mouse; conditions: FIG. 6 Panel A, 12 hours, RNA with DOTAP
Experimental: The following murine cells were isolated and incubated with various RNAs and other known TLR ligands in order to assess species-, cell type-, and signaling pathway-specificity: wild type macrophages in the presence of IFN-γ; MyD88-deficient macrophages in the presence of IFN-γ; J774 (mouse macrophage cell line); and RAW 264.7 (mouse macrophage cell line, e.g., ATCC TIB-71). Murine bone macrophages were generated from wild type or MyD88-deficient C57BL/6 mice by culturing bone marrow cells with 50 ng/ml M-CSF for 5 days. Cells were seeded at 25,000 cells/well and treated with 20 ng/ml IFN-γ for 16 hours. The murine macrophage cell lines RAW and J774 were seeded at 10,000 cells/well.
The following test and control agents were examined: R-848 (2 μg/ml), ODN 1668 (CpG DNA; 5′-[…]-3′; SEQ ID NO:7); LPS (1 μg/ml); poly IC (50 μg/ml); Pam3Cys (5 μg/ml); Ionomycin/TPA; the following RNA molecules, each with (“+Lipo”) and without DOTAP (10 μg/200 μl culture well): GUGUUUAC alone (RNA1); GUAGGCAC alone (RNA2); GUGUUUAC in combination with GUAGGCAC (RNA1/2); […] (RNA6; SEQ ID NO:8); […] (RNA9; SEQ ID NO:9); and the following DNA molecules, corresponding to RNA1, RNA2, and RNA1/2: GTGTTTAC alone (DNA1); GTAGGCAC alone (DNA2); and GTGTTTAC in combination with GTAGGCAC (DNA1/2). These RNA and DNA oligonucleotides each contained a phosphorothioate linkage between the penultimate and 3′ terminal nucleoside. RNA6 and RNA9 each contained in addition a phosphorothioate linkage between the penultimate and 5′ terminal nucleoside. RNA6 corresponds to a ribosomal RNA stem loop derived from Listeria monocytogenes. RNA9 corresponds to a stem loop derived from human immunodeficiency virus (HIV, an RNA retrovirus). The cells were cultured for 12 hours and supernatants were harvested. Murine IL-12 p40, IL-6, and TNF-α were measured by ELISA using matched antibody pairs from BD-Pharmingen according to the manufacturer's protocol.

[5] = target: T1, human TLR7 (Homo sapiens, UniProt Q9NYK1); test: NF-κB luciferase reporter in 293 HEK cells transfected with human TLR7; format: cell-based; conditions: for human TLR7 response to modified guanosine ribonucleosides: FIG. 18
T1 construct: All full-length TLR fragments were cloned into pGEM-T Easy vector; expressed in transfected cells; host or cells: 293 HEK cells (ATCC), transient electroporation with pcDNA3.1(-) TLR expression plasmid
T1 sequence (Q9NYK1 27-1049): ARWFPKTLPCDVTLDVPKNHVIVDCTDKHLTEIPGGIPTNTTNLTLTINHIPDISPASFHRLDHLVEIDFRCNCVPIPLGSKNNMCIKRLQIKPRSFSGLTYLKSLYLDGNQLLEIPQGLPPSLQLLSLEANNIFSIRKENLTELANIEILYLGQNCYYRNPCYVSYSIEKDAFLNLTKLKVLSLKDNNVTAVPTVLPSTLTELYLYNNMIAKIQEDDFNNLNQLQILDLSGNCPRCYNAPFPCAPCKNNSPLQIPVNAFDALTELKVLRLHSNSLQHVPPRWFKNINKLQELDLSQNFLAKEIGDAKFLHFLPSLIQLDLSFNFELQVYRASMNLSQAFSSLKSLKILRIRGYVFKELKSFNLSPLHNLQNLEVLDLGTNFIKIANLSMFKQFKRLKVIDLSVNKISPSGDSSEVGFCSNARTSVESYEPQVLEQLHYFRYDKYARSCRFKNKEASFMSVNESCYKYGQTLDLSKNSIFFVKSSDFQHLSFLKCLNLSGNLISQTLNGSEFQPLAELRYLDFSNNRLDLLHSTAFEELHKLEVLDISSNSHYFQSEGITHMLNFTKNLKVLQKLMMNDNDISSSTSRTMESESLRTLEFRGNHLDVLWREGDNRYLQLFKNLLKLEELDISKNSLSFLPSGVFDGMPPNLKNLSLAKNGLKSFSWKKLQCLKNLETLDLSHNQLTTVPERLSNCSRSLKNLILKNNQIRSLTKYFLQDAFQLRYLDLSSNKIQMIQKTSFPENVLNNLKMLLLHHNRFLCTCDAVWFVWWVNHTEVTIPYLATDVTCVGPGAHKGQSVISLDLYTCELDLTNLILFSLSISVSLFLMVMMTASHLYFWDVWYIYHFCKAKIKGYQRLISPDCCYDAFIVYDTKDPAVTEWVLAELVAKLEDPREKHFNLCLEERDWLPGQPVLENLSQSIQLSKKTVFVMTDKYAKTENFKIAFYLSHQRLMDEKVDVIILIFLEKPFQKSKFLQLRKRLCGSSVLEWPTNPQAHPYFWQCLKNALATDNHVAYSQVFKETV
Experimental: FIG. 12 depicts the responsiveness of human TLR7 and human TLR8 to ribonucleosides. It was determined that the response by human PBMC to RNA or RVC was mediated by TLR7 or TLR8 and further that the response could be driven by ribonucleosides only. Human 293 cells were either mock-transfected or transfected with human TLR7 or human TLR8 and monitored for responsiveness to ribonucleosides. The open reading frames of human TLR7 (hTLR7) and human TLR8 (hTLR8) were amplified by PCR from a cDNA library of human PBMC using the following primers pairs: for TLR7, 5′-[…]-3′ (SEQ ID NO:15) and 5′-[…]-3′ (SEQ ID NO:16); and for TLR8, 5′-[…]-3′ (SEQ ID NO:17) and 5′-[…]-3′ (SEQ ID NO:18). The sequence information for primer selection was obtained from Genbank accession numbers AF240467 and AF245703. All full-length TLR fragments were cloned into pGEM-T Easy vector (Promega, Mannheim, Germany), excised with NotI, cloned into the expression vector pcDNA 3.1(−) (Invitrogen, Karlsruhe, Germany) and sequenced. Sequences of the coding region of hTLR7 and hTLR8 correspond to the accession numbers AF240467 (SEQ ID NO:25) and AF245703, respectively (SEQ ID NO:29).
For monitoring transient NF-κB activation, 3×10^6 293 HEK cells (ATCC, VA, USA) were electroporated at 200 volt and 960 μF with 1 μg TLR expression plasmid, 20 ng NF-κB luciferase reporter-plasmid and 14 μg of pcDNA3.1(−) plasmid as carrier in 400 μl RPMI medium supplemented with 25% fetal bovine serum (FCS). Cells were seeded at 10^5 cells per well and after over night culture stimulated with R-848 (denoted in FIG. 12 as X; commercially synthesized by GLSynthesis Inc., Worcester, Mass., USA), RVCs or ribonucleosides for a further 7 hours. Stimulated cells were lysed using reporter lysis buffer (Promega, Mannheim, Germany), and lysate was assayed for luciferase activity using a Berthold luminometer (Wildbad, Germany).

human TLR7 response to modified guanosine ribonucleosides [5] | Compound | pEC50 [1] | IL-6 max [1] | pEC50 [2] | IP-10 max [2] | TNF-α max [3] | pEC50 [3] | other results
 | G*U*G*U*G*U*G*U*dT*dT*dT*dT*dT*dT (rG*rU*rG*rU*rG*rU*rG*rU*dT*dT*dT*dT*dT*dT) [R 1062] | 6.40 | 28000 pg/mL | 7.00 | 400 pg/mL | 80000 pg/mL | 6.52 | 
 | dG*dG*dG*dG_dG_G*U*G*U*G*U*G*U (dG*dG*dG*dGdGrG*rU*rG*rU*rG*rU*rG*rU) [R 1061] | < 4.70 | 10000 pg/mL | 5.96 | 180 pg/mL | 20000 pg/mL | 5.37 | 
 | 5′-TCCATGACGTTCCTGATGCT-3′ (CpG DNA, linkage chemistry not given here, further chemistry not given here) [ODN 1668] |  |  |  |  |  |  | IL-12 p40 secretion by wild type murine macrophages [4]: significant amounts
 | dT*dT*dT*dT*dT*G*U*G*U*G*U*G*U (dT*dT*dT*dT*dT*rG*rU*rG*rU*rG*rU*rG*rU) [R 1063] | 6.10 | 28000 pg/mL | 7.00 | 250 pg/mL | 60000 pg/mL | 6.52 | 
responsive | Nc1nc2c(ncn2[C@@H]2O[C@H](CO)[C@@H](O)[C@H]2O)c(=O)[nH]1 [guanosine] |  |  |  |  |  |  | response of TLR7 transfectants (NF-κB luciferase) ([5]; FIG. 12, transient transfectants, 7 hours stimulation): responded; responsiveness of TLR7 to ribonucleosides and mixtures of two ([5]; FIG. 13): responded best; stimulation of PBMC to produce TNF ([3]; Example 14, in the absence of vanadate): effective
responded mildly | Nc1nc2c(nc(Br)n2[C@@H]2O[C@H](CO)[C@@H](O)[C@H]2O)c(=O)[nH]1 [8-bromo-guanosine, reference compound] |  |  |  |  |  |  | 
responded mildly | Nc1nc2c(ncn2[C@H]2C[C@H](O)[C@@H](CO)O2)c(=O)[nH]1 [deoxy form of guanosine] |  |  |  |  |  |  | 
